Molecular target: Papain (Carica papaya) (UniProt P00784)
Test: Enzyme activities were calculated from kinetic measurements performed by spectrophotometric detection of the product p-nitroaniline (pNA) at wavelength of 405 nm. Progress curves were monitored over 10 min. Rate was determined for 7 different inhibitor concentrations in duplicate. The apparent inhibition constant, Ki (app) was determined by fitting

Papain (Carica papaya), sequence (P00784 whole entry, looked up): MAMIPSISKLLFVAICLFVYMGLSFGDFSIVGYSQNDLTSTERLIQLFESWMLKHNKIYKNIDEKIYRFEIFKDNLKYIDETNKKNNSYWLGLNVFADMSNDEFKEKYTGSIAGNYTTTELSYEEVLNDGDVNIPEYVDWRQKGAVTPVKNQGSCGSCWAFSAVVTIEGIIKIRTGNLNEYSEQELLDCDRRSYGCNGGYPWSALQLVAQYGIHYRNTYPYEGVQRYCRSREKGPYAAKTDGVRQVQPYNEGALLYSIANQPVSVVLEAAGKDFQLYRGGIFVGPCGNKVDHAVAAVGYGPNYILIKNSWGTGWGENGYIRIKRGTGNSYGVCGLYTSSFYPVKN

Ki: 45 µM
SMILES: CC(C)(C)OC(=O)N[C@@H](Cc1ccsc1)C(=O)NCC#N [tert-butyl N-[(1S)-1-[(cyanomethyl)carbamoyl]-2-(thiophen-3-yl)ethyl]carbamate]

Source: BindingDB's records for doi:10.1021/jm050686b (Rheinische Friedrich-Wilhelms-Universitat Bonn, 2005)
